# Measurements: paper PMC8205039, “Synthesis and biological evaluation of 4-phenoxy-phenyl isoxazoles as novel acetyl-CoA carboxylase inhibitors” (Journal of Enzyme Inhibition and Medicinal Chemistry, 2021)
# Key:
# hACC1 = biological target: T1, hACC1 (Homo sapiens, UniProt Q13085); experiment: ACC inhibitory assay (ADP-Glo luminescent ADP detection); format: biochemical; conditions: for inhibition at 0.1 µM: hACC1, 0.1 μM, read-out: IRs (%) 0.1 μM; for inhibition at 0.1 µM / inhibition at 5 µM: mean of two independent experiments (Table 2); for inhibition at 5 µM: hACC1, 5 μM, read-out: IRs (%) 5 μM; for IC50: hACC1, mean ± SD
# T1 construct: purchased BPS Biosciences 50200
# Procedure: The hACC1 inhibitory activity of target compounds was evaluated using the ADP-Glo^TM kinase assay according to our previous report. In brief, 4.5 µL of working solution containing recombinant ACC1 (BPS Biosciences, 50200) and 0.5 µL of diluted compound solution were added to a 384-well Optiplate plate (Perkin Elmer, 6007290, PerkinElmer, Waltham, MA, USA), and incubated at room temperature for 15 min. Then, 5 µL of substrate mixture was added to the 384-well plate to start the reaction. After incubating for 60 min at room temperature, 10 µL of ADP-Glo reagents were added to the 384-well plate, and incubated for another 40 min to deplete the remaining ATP. Finally, 20 µL of kinase detection reagents were added to the plate and incubated for 40 min to convert ADP to ATP. The luminescent signal of ATP was determined using an Envision multifunction reader (Perkin Elmer, 2104–0010, PerkinElmer, Waltham, MA, USA). The IC50 values were calculated using GraphPad Prism 5 software (GraphPad Software, La Jolla, CA, USA).
# A549 cells = experiment: MTT assay, A549; format: cell-based; conditions: Homo sapiens, 72 h, mean ± SD (n = 3)
# Procedure: (§1) The cytotoxicity of target compounds was assessed by MTT assay. Briefly, cells were seeded in 96-well plates at a density of 2500–3000 per well and incubated for 24 h in a CO2 incubator. Then, the cells were treated with candidate compounds at seven different concentrations for 72 h. At the end of treatment, the MTT reagent (5 mg/mL) was added to determine the cell viability. After 4 h of incubation, the resulting medium was removed, and 100 µL of DMSO was added to dissolve the formed formazan. Finally, the absorbance at 550 nm was measured by a microplate reader (Varioskan LUX, […]), with the IC50 values calculated using GraphPad Prism 5 software (GraphPad Software, La Jolla, CA, USA).
# HepG2 cells = experiment: MTT assay, HepG2; format: cell-based; conditions: Homo sapiens, 72 h, mean ± SD (n = 3)
# Procedure: as §1
# MDA-MB-231 cells = experiment: MTT assay, MDA-MB-231; format: cell-based; conditions: Homo sapiens, 72 h, mean ± SD (n = 3)
# Procedure: as §1
# [1] = Cell viability of non-cancerous HUVEC; format: cell-based, human; conditions: human, HUVEC cells (non-cancerous)
# Procedure: (§2) To investigate the selectivity of the synthesised compounds towards cancer cells, the non-cancerous HUVEC cell line was selected for testing.
# as §1
# HUVEC = experiment: Cell viability of non-cancerous HUVEC; format: cell-based, human; conditions: 10 μM
# Procedure: as §2, §1
Compound,inhibition at 0.1 µM (hACC1) [%],inhibition at 5 µM (hACC1) [%],IC50 (A549 cells) [µM],IC50 (HepG2 cells) [µM],IC50 (MDA-MB-231 cells) [µM],"viability at 72 h, 10 µM [1] [%]",melting point [°C],IC50 (hACC1) [nM],IRs towards HUVEC (HUVEC),"hACC1 IRs (%) (hACC1; at 5 μM, HTVS candidates (Table 1))",ACC inhibitory activity (in words) (hACC1; screening at 5 µM and 0.1 µM)
"CCOc1ccc(Oc2ccc(-c3cc(C(C)NC(C)=O)on3)cc2)cc1 (stereo not drawn) [Compound 6d, N-(1-(3-(4-(4-Ethoxyphenoxy)phenyl)isoxazol-5-yl)ethyl)acetamide]",12.7,45.5,> 10,> 10,> 10,89.1 ± 6.09,106.5 to 107.5,,,,
"CC(NC(=O)Nc1ccccc1)c1cc(-c2ccc(Oc3ccccc3)cc2)no1 (stereo not drawn) [Compound 6p, 1-(1-(3-(4-Phenoxyphenyl)isoxazol-5-yl)ethyl)-3-phenylurea]",21.5,> 60,5.3 ± 0.46,1.8 ± 0.62,0.84 ± 0.08,85.6 ± 7.35,195.5 to 196.5,1050 ± 180,less than 20%,,
"CC(NC(=O)c1ccccc1)c1cc(-c2ccc(Oc3ccccc3)cc2)no1 (stereo not drawn) [Compound 6k, N-(1-(3-(4-Phenoxyphenyl)isoxazol-5-yl)ethyl)benzamide]",28.1,> 60,2.61 ± 0.34,3.23 ± 0.89,0.57 ± 0.18,80 ± 2.47,,626 ± 41.6,less than 20%,,
"CC(C)NC(=O)NC(C)c1cc(-c2ccc(Oc3ccccc3)cc2)no1 (stereo not drawn) [Compound 6o, 1-Isopropyl-3-(1-(3-(4-phenoxyphenyl)isoxazol-5-yl)ethyl)urea]",17.9,49.8,3.12 ± 0.19,2.31 ± 0.44,1.9 ± 0.52,77.7 ± 5.67,197.5 to 198.5,,,,
"CC(=O)NC(C)c1cc(-c2ccc(Oc3ccc(OC(C)C)cc3)cc2)no1 (stereo not drawn) [Compound 6f, N-(1-(3-(4-(4-Isopropoxyphenoxy)phenyl)isoxazol-5-yl)ethyl)acetamide]",16.7,52.8,> 10,> 10,6.77 ± 0.74,35 ± 1.66,124 to 126,,,,
"CC(NC(=O)C1CC1)c1cc(-c2ccc(Oc3ccccc3)cc2)no1 (stereo not drawn) [Compound 6j, N-(1-(3-(4-Phenoxyphenyl)isoxazol-5-yl)ethyl)cyclopropanecarboxamide]",20.8,58.4,2.66 ± 0.47,3.48 ± 0.74,1.13 ± 0.38,59.5 ± 0.95,168.5 to 169.5,,,,
"CCCOc1ccc(Oc2ccc(-c3cc(C(C)NC(C)=O)on3)cc2)cc1 (stereo not drawn) [Compound 6e, N-(1-(3-(4-(4-Propoxyphenoxy)phenyl)isoxazol-5-yl)ethyl)acetamide]",31.1,> 60,2.66 ± 0.47,3.48 ± 0.74,1.53 ± 0.38,83.7 ± 4.4,118.5 to 119.5,438 ± 16.3,less than 20%,,
"CC(NC(=O)NCc1ccccc1)c1cc(-c2ccc(Oc3ccccc3)cc2)no1 (stereo not drawn) [Compound 6q, 1-Benzyl-3-(1-(3-(4-phenoxyphenyl)isoxazol-5-yl)ethyl)urea]",28.3,> 60,5.73 ± 0.11,2.47 ± 0.5,0.89 ± 0.26,84.9 ± 3.98,161.5 to 162.5,711 ± 52.6,less than 20%,,
"CCNC(=O)NC(C)c1cc(-c2ccc(Oc3ccccc3)cc2)no1 (stereo not drawn) [Compound 6n, 1-Ethyl-3-(1-(3-(4-phenoxyphenyl)isoxazol-5-yl)ethyl)urea]",13.4,44.7,5.78 ± 0.86,9.04 ± 1.43,8.63 ± 1.14,83.2 ± 2.33,158.5 to 159.5,,,,
"O=C(c1c2ccccc2cc2ccccc12)N1CCC(N2CCC[C@@H](C(=O)N3CCOCC3)C2)CC1 [CP-640186, reference compound]",48.9,87.8,,,,,,109 ± 6.2,,86.83,
"CCC(=O)NC(C)c1cc(-c2ccc(Oc3ccccc3)cc2)no1 (stereo not drawn) [Compound 6i, N-(1-(3-(4-Phenoxyphenyl)isoxazol-5-yl)ethyl)propionamide]",18.5,51.8,6.02 ± 0.63,4.21 ± 0.53,2.97 ± 1.49,70.33 ± 0.25,129.5 to 130.5,,,,
"CC(=O)NC(C)c1cc(-c2ccc(Oc3ccc(O)cc3)cc2)no1 (stereo not drawn) [Compound 6b, N-(1-(3-(4-(4-Hydroxyphenoxy)phenyl)isoxazol-5-yl)ethyl)acetamide]",8.76,26.8,> 10,> 10,> 10,88.1 ± 3.83,103 to 105,,,,
"CC(=O)NC(C)c1cc(-c2ccc(Oc3ccccc3)cc2)no1 (stereo not drawn) [Compound 6h, N-(1-(3-(4-Phenoxyphenyl)isoxazol-5-yl)ethyl)acetamide]",8.78,36.4,> 10,> 10,> 10,91.5 ± 2.58,118.5 to 119.5,,,,
"COc1cccc2c1C(=O)c1c(O)c3c(c(O)c1C2=O)C[C@@](O)(C(=O)CO)C[C@@H]3O[C@H]1C[C@H](N)[C@H](O)[C@H](C)O1 [DOX, doxorubicin, reference compound]",,,0.52 ± 0.07,0.67 ± 0.13,0.42 ± 0.09,18.9 ± 4.02,,,,,
"COc1ccc(Oc2ccc(-c3cc(C(C)NC(C)=O)on3)cc2)cc1 (stereo not drawn) [Compound 6c, N-(1-(3-(4-(4-Methoxyphenoxy)phenyl)isoxazol-5-yl)ethyl)acetamide]",9.89,37.3,> 10,> 10,> 10,82.4 ± 4.85,127.5 to 128.5,,,,
"CCOC(=O)NC(C)c1cc(-c2ccc(Oc3ccccc3)cc2)no1 (stereo not drawn) [Compound 6m, Ethyl (1-(3-(4-phenoxyphenyl)isoxazol-5-yl)ethyl)carbamate]",3.57,16.8,> 10,> 10,> 10,79.1 ± 4.76,106.5 to 107.5,,,,hardly observed
